Measured values as given in article PMC11477294, “In Vitro Profiling of the Antiviral Peptide TAT-I24” (International Journal of Molecular Sciences, 2024).
Where a SMILES comes first, the peptide text is derived from it.

Tested on: MCMV pM123/IE1 protein expression
Assay: pM123/IE1 immunofluorescence in MCMV-infected NIH/3T3 cells
Type: cell-based, mouse cytomegalovirus
Details: MCMV MOI 1, 6 h post-infection
Experimental: NIH/3T3 cells were seeded at a density of 2 × 10^4 cells/250 µL per well in ibiTreat 8-well chambers (ibidi, Gräfelfing, Germany) and allowed to attach overnight at 37 °C. On the next day, cells were treated with peptides and infected with MCMV at an MOI of 1 with the aid of centrifugal enhancement, twice at 800× g for 15 min. After 6 h of incubation at 37 °C, the supernatants were removed and cells were fixed with 5% formaldehyde for 1 h at room temperature, followed by permeabilization with 0.5% Triton X-100 (Sigma Aldrich, Schnelldorf, Germany) in PBS for 10 min at room temperature. Cells were then incubated with 3% bovine serum albumin (BSA; Sigma Aldrich, Schnelldorf, Germany) in PBS for one hour. After that, anti-m123/IE-1 antibody (clone IE1.01; Center for Proteomics, Rijeka, Croatia) was added at a 1:400 dilution in PBS + 1% BSA and slides were incubated overnight at 4 °C. On the next day, wells were washed twice with PBS. […]

For `CC(C)C[C@H](NC(=O)[C@H](CS)NC(=O)[C@H](CCC(N)=O)NC(=O)[C@@H]1CCCN1C(=O)[C@@H]1CCCN1C(=O)[C@H](CCCNC(=N)N)NC(=O)[C@H](CCCNC(=N)N)NC(=O)[C@H](CCCNC(=N)N)NC(=O)[C@H](CCC(N)=O)NC(=O)[C@H](CCCNC(=N)N)NC(=O)[C@H](CCCNC(=N)N)NC(=O)[C@H](CCCCN)NC(=O)[C@H](CCCCN)NC(=O)[C@H](CCCNC(=N)N)NC(=O)CN)C(=O)N[C@@H](C)C(=O)N[C@@H](Cc1ccccc1)C(=O)N[C@@H](Cc1ccc(O)cc1)C(=O)N[C@@H](C)C(=O)N[C@@H](CS)C(=O)N[C@@H](Cc1ccccc1)C(=O)N[C@@H](CS)C(=O)O` [TAT-I24] (H-GRKKRRQRRRPPQCLAFYACFC-OH), the “number of pM123/IE1-positive cells” value (1 µM peptide) was “clearly reduced” and the “number of pM123/IE1-positive cells” value (10 µM peptide) was “clearly reduced”.
